Test system: ZmCkx2
Assay: ZmCkx2 expression in leaf discs incubated with benzyladenine (Northern and Lynx analyses)
Type: cell-based, maize
Details: leaf discs incubated with 10 μM benzyladenine
Protocol: Northern analysis of ZmCkx2 was performed using ExpressHyb™ Hybridization Solution from BD Biosciences Clontech (Palo Alto, Calif.) with a final wash in 0.1×SSC, 0.1% SDS at 65° C. for 20 minutes.
A tight relationship exists between Lynx and Northern data for ZmCkx2. This provided confidence when the Lynx database was mined for ZmCkx2 expression in various plant parts. […] Similarly, Northern data indicated strongest signals from ear leaf and midrib tissues; intermediate levels in tassel, husk leaves, young leaves, stalk, and pulvini; and lower levels in cob and ovary tissue. Little to no ZmCkx2 activity was detected by Northern analysis of roots or silks.

Structure (SMILES): c1ccc(CNc2ncnc3nc[nH]c23)cc1 [benzyladenine]
- increase in ZmCkx2 expression: 2 fold

From patent US8222483B2, “Cytokinin oxidase sequences and methods of use” (Pioneer Hi Bred International Inc, priority 2004, dated 2012)
